From publication PMC6107127, “Characteristics of the mitochondrial and cellular uptake of MPP^+, as probed by the fluorescent mimic, 4'I-MPP^+” (PLoS ONE, 2018)

Experiments:
[1] = system: isolated intact MN9D mitochondria; test: Effects of Ca2+ and inhibitors on MN9D mitochondrial uptake of 4'I-MPP+; design: species or system mouse
Method: Intact MN9D cell mitochondria were incubated with 200 μM 4'I-MPP^+ for 45 min at 37 °C in 0, 500 or 1000 nM Ca^2+ containing KCl buffer. When mNCX inhibitors (KBR7943, 2APB and CGP37157) were used, mitochondrial suspensions were initially incubated with 10, 25 or 50 μM inhibitor in KCl buffer for 10 min at 37 °C and then with 200 μM 4'I- MPP^+ for 45 min at 37 °C. After the incubations, samples were centrifuged at 7,000 x g at 4 °C for 10 min and the mitochondrial pellets were treated with 75 μL of 0.1 M HClO4. […] To visualize the effect of CGP37157 on the mitochondrial uptake of 4'I-MPP^+ in live cells, HepG2 cells grown in glass-bottomed plates were incubated with 50 μM CGP37157 for 30 min initially and then with 100 μM 4'I-MPP^+ and 200 nM MitoTracker Green FM in KRB-HEPES for 1 h at 37 °C. After incubation cells were washed and reconstituted with KRB-HEPES, pH 7.4 and 4'I-MPP^+ and MitoTracker Green FM fluorescence images of cells were recorded as detailed above. Controls were treated under the same experimental conditions, except that CGP37157 was omitted from the initial incubation.
S4 Fig. Effects of Benzamil, Verapamil, FFA, and ruthenium red on the MN9D mitochondrial uptake of 4'I-MPP+. MN9D mitochondrial suspensions were initially incubated with a 50 μM concentration of the desired agent (10 μM Ruthenium red) in KCl buffer for 10 min at 37 °C and then incubated with 200 μM 4'I-MPP+ for 45 min at 37 °C. After the incubations, the […] 4'I-MPP+ contents were quantified by RP-HPLC-UV as described in Material and methods. The data are represented as mean ± S.D (n=3).
(also on this page, place not known: contol 10uM Ru red BenzamilVerapamil FFA 4I' MPP+ uptake (nmoles/mg) 0.0 0.1 0.2 0.3 0.4 0.5)
(1 picture or pasted object on this page, not shown here)

[2] = Relative HPLC elution times and hydrophobicities; format: physicochemical
HepG2 cells = test: Effect of CGP37157 and KBR7943 on 4'I-MPP+-mediated mitochondrial membrane depolarization (TMRM); format: cell-based, human; conditions: 50 μM pre-treatment 30 min, 100 μM 4'I-MPP+
Method: HepG2 cells grown in glass-bottomed plates for two days were treated with 50 μM CGP37157 or KBR7943 in KRB-HEPES for 30 min followed by 50 nM TMRM in KRB-HEPES for 45 min. Then plates were mounted on the stage of the microscope and mitochondrial membrane depolarization upon the treatment with 100 μM 4'I-MPP^+ was measured as a function of time as detailed above. The effect of CGP37157 on the 4'I-MPP^+ mediated mitochondrial membrane depolarization at longer time periods was monitored by observing the reduction of TMRM fluorescence from 0 to 4 h incubations in the presence or absence of CGP37157. HepG2 cells were incubated with or without 10 μM CGP37157 followed by 50 nM TMRM, and finally with 4'I-MPP^+ (100 μM, 0 or 4 h) and the intracellular TMRM fluorescence was recorded. Controls were carried out using an identical protocol except that either CGP37157 or 4'I-MPP^+ were omitted from the incubation media.

[3] = system: rat brain mitochondrial complex-I (NADH: ubiquinone oxidoreductase); test: Ubiquinone dependent NADH oxidation (complex-I inhibition); format: biochemical; conditions: 10 μM
Method: Isolated rat brain mitochondria were lysed by freeze-thawing in hypotonic media containing 25 mM K3PO4 and 5 mM MgCl2, pH 7.2 [22]. The complex-I (i.e. NADH: ubiquinone oxidoreductase) activity of mitochondrial membrane fragments were determined according to the procedure of Birch-Machin and Turnbull. Briefly, mitochondrial membranes (50 μg protein) were incubated with 130 μM NADH (final concentration) and Antimycine A (2 μg/mL) in a 1.0 mL assay solution containing 25 mM K3PO4, 5 mM MgCl2, 2 mM KCN, 2.5 mg/mL bovine serum albumin, pH 7.2, for 2 min at 37 °C with or without rotenone, MPP^+ or 4'I-MPP^+ (for further details see the corresponding figure legends). The complex-I mediated ubiquinone dependent NADH oxidation was initiated by adding ubiquinone-1 to a final concentration of 65 μM and the initial rates of the reactions were monitored by following the decrease in absorbance at 340 nm with respect to 425 nm reference wavelength for 5 min.

[4] = 50 μM inhibitor at 200 μM 4'I-MPP+
[5] = 50 μM agent, 200 μM 4'I-MPP+ (S4 Fig)

| Structure (SMILES) | relative elution time (hydrophobicity) ([2]; Buffer:CH3CN 70:30) | relative elution time (hydrophobicity) ([2]; Buffer:CH3CN:MeOH 60:30:10) | relative elution time (hydrophobicity) ([2]; Buffer:CH3CN:MeOH 65:25:10) | also measured |
| --- | --- | --- | --- | --- |
| NCCOB(c1ccccc1)c1ccccc1 [2APB] |  |  |  | effect on uptake of 4'I-MPP+ [1, 4]: inhibit the uptake |
| C[n+]1ccc(-c2ccc(Br)cc2)cc1 [4Br' MPP^+] | 9.67 | 7.74 | 10.30 |  |
| C[n+]1ccc(-c2ccc(Cl)cc2)cc1 [4Cl' MPP^+] | 8.66 | 7.08 | 9.17 |  |
| C[n+]1ccc(-c2ccc(F)cc2)cc1 [4F' MPP^+] | 6.44 | 5.68 | 6.60 |  |
| N=C(N)SCCc1ccc(OCc2ccc([N+](=O)[O-])cc2)cc1 [KBR7943] |  |  |  | effect on uptake of 4'I-MPP+ [1, 4]: inhibit the uptake; effect on 4'I-MPP+ mitochondrial membrane depolarization (HepG2 cells): significantly reduced |
| NC(=NCc1ccccc1)NC(=O)c1nc(Cl)c(N)nc1N [benzamil] |  |  |  | effect on uptake of 4'I-MPP+ [1, 5]: no significant effect |
| C=C(C)[C@H]1Cc2c(ccc3c2O[C@@H]2COc4cc(OC)c(OC)cc4[C@@H]2C3=O)O1 [rotenone] |  |  |  | inhibition of NADH oxidation (complex-I) activity [3]: about 90% |
| N.N.N.N.N.N.N.N.N.N.N.N.N.N.[Cl-].[Cl-].[Cl-].[Cl-].[Cl-].[Cl-].[O-2].[O-2].[Ru+3].[Ru+3].[Ru+4] [ruthenium red] |  |  |  | inhibition of 4'I-MPP+ uptake ([1]; 10 μM ruthenium red, 200 μM 4'I-MPP+): ~ 10% |
| COc1ccc(CCN(C)CCCC(C#N)(c2ccc(OC)c(OC)c2)C(C)C)cc1OC (stereo not shown) [verapamil] |  |  |  | effect on uptake of 4'I-MPP+ [1, 5]: no significant effect |
